Test systems include OVCAR-8 ovarian; NCI/ADR-RES ovarian; K-562 leukemia; HCT-15 colon; OVCAR-4 ovarian; A498 renal; KM12 colon; DU-145 prostate; PC-3 prostate.
What all share (test): inhibition of tumour cell growth, NCI panel, 48 h

Structures are written as SMILES.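 Briefly, cells in 96-well plates were exposed to five compound concentrations for 48 h, and endpoints were estimated by linear interpolation. The concentration for full growth arrest is given as TGI.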

As for `CCNC(=S)N/N=C/c1ccccn1`, the TGI in the assay with OVCAR-8 ovarian is > 100 µM; in the assay on NCI/ADR-RES ovarian, > 100 µM; in the assay on K-562 leukemia, > 100 µM; in the assay on HCT-15 colon, > 100 µM; in the assay on OVCAR-4 ovarian, 4.98 µM; in the assay on A498 renal it was 36.8 µM. Moreover, the TGI in the assay on KM12 colon is > 100 µM; in the assay on DU-145 prostate it was 58.5 µM; in the assay with PC-3 prostate, > 100 µM.

Turning to `COC(=O)c1sc2ncc3c(c2c1N)CC(C)CC3` (centres undefined), the TGI with NCI/ADR-RES ovarian, in the assay on K-562 leukemia, in the assay on HCT-15 colon, in the assay on OVCAR-4 ovarian, in the assay with A498 renal and with KM12 colon was > 100 µM each time. Further, the TGI in the assay on DU-145 prostate and in the assay on PC-3 prostate was > 100 µM in each case.

`CC1(C)[C@@H]2C[C@H]1c1cnc(-c3ccccn3)cc1[C@H]2C(O)[C@@H]1c2cc(-c3ccccn3)ncc2[C@H]2C[C@@H]1C2(C)C` (some centres undefined): the TGI in the assay with OVCAR-8 ovarian is 3.1 µM; with NCI/ADR-RES ovarian, 1.41 µM; with K-562 leukemia, > 52 µM; in the assay with HCT-15 colon, 25.2 µM; in the assay with OVCAR-4 ovarian, > 9.95 µM; in the assay with A498 renal it was 6.24 µM. In addition, the TGI was 24.7 µM in the assay with KM12 colon, 3.47 µM in the assay with DU-145 prostate and 11 µM with PC-3 prostate.

For `CC1(C)OC(CCO)CN1C(=O)OCc1ccccc1` (centres undefined), the TGI in the assay on OVCAR-8 ovarian, in the assay with NCI/ADR-RES ovarian, in the assay with K-562 leukemia, in the assay with HCT-15 colon, with OVCAR-4 ovarian and in the assay with A498 renal was > 100 µM each time. Moreover, the TGI in the assay on KM12 colon, in the assay with DU-145 prostate and in the assay with PC-3 prostate was > 100 µM in each case.

As for `COC1OC2COC(C)(C)OC2C2OC(C)(C)OC12` (centres undefined), the TGI in the assay on OVCAR-8 ovarian, with NCI/ADR-RES ovarian, with K-562 leukemia, with HCT-15 colon, in the assay with OVCAR-4 ovarian and with A498 renal was > 100 µM each time. In addition, the TGI in the assay on KM12 colon, with DU-145 prostate and in the assay with PC-3 prostate was > 100 µM each time.

On to `COc1cc2nc(-c3c(F)cccc3F)n(Cc3c(F)cccc3F)c2cc1Cc1c(F)cccc1F`, for which the TGI with OVCAR-8 ovarian was > 100 µM; in the assay on NCI/ADR-RES ovarian, > 100 µM; in the assay with K-562 leukemia it was > 100 µM; with HCT-15 colon, > 100 µM; with OVCAR-4 ovarian, 10.9 µM; with A498 renal, > 100 µM. Moreover, the TGI in the assay on KM12 colon, in the assay with DU-145 prostate and in the assay on PC-3 prostate was > 100 µM each time.

Regarding `CCOC(=O)c1c(NC(=S)Nc2ccc(C)cc2)sc2c1CCN(C)C2`, the TGI with OVCAR-8 ovarian, in the assay with NCI/ADR-RES ovarian, in the assay on K-562 leukemia, in the assay on HCT-15 colon, in the assay with A498 renal and in the assay with KM12 colon was > 100 µM throughout. The TGI in the assay on DU-145 prostate and in the assay on PC-3 prostate was > 100 µM in each case.

With `O=[N+]([O-])c1ccc2nc3c(nc2c1)-c1c2ccccc2cc2cccc-3c12`, the TGI in the assay on OVCAR-8 ovarian was > 30.6 µM; in the assay with NCI/ADR-RES ovarian, 28.3 µM; with K-562 leukemia, > 85.9 µM; with HCT-15 colon, > 100 µM; in the assay on OVCAR-4 ovarian it was > 100 µM; in the assay with A498 renal, 2.37 µM. The TGI is > 100 µM in the assay on KM12 colon, > 100 µM in the assay with DU-145 prostate and > 66.6 µM in the assay on PC-3 prostate.

Turning to `CCOC(=O)c1[nH]c2nc(SC)nc(NC)c2c1N`, the TGI in the assay on OVCAR-8 ovarian, in the assay with NCI/ADR-RES ovarian, in the assay on K-562 leukemia, in the assay on HCT-15 colon, in the assay on OVCAR-4 ovarian and in the assay on A498 renal was > 100 µM each time. Further, the TGI in the assay with KM12 colon, in the assay with DU-145 prostate and in the assay on PC-3 prostate was > 100 µM in each case.

With `COc1cc2c(cc1O)CC[n+]1cc3c(OC)c(OC)ccc3cc1-2`, the TGI in the assay with OVCAR-8 ovarian, with NCI/ADR-RES ovarian, in the assay with K-562 leukemia, with HCT-15 colon, in the assay with OVCAR-4 ovarian and in the assay on A498 renal was > 100 µM throughout. Further, the TGI in the assay on KM12 colon, with DU-145 prostate and with PC-3 prostate was > 100 µM in each case.

On to `COC(=O)C1=C(C(=O)OC)C2(C)CCC(=O)C1O2` (centres undefined), for which the TGI in the assay with OVCAR-8 ovarian, in the assay with NCI/ADR-RES ovarian, in the assay on K-562 leukemia, in the assay with HCT-15 colon, with OVCAR-4 ovarian and in the assay on A498 renal was > 10 µM each time. For the same compound, the TGI with KM12 colon, in the assay on DU-145 prostate and with PC-3 prostate was > 10 µM throughout.

For the compound `C=C1CC=CC(C)(C)C1C/C=C(\C)C(O)CBr` (centres undefined), the TGI is > 100 µM in the assay with OVCAR-8 ovarian; 63.2 µM in the assay with NCI/ADR-RES ovarian; > 100 µM in the assay with K-562 leukemia; > 100 µM in the assay on HCT-15 colon; > 100 µM in the assay on OVCAR-4 ovarian; > 100 µM in the assay with A498 renal. The TGI in the assay with KM12 colon, in the assay on DU-145 prostate and in the assay with PC-3 prostate was > 100 µM in each case.

As for `COC(=O)C(CCSC)NC(=O)CSc1nnc(COc2ccc(Cl)cc2)n1-c1ccccc1` (centres undefined), the TGI in the assay on OVCAR-8 ovarian amounted to 36.3 µM; in the assay on NCI/ADR-RES ovarian, 39.2 µM; in the assay on K-562 leukemia, 69.9 µM; in the assay with HCT-15 colon it was 39.8 µM; in the assay on OVCAR-4 ovarian it was 31.8 µM; in the assay with A498 renal it was 46.7 µM. Besides, the TGI was determined as 34.4 µM with KM12 colon, 33 µM in the assay on DU-145 prostate and 38.4 µM in the assay with PC-3 prostate.

Consider `CCOC(=O)Cc1nn2c(=O)cc(C)nc2s1`, for which the TGI in the assay with OVCAR-8 ovarian, with NCI/ADR-RES ovarian, with K-562 leukemia, in the assay on HCT-15 colon, in the assay on OVCAR-4 ovarian and in the assay with KM12 colon was > 100 µM in each case. The TGI in the assay on DU-145 prostate and in the assay with PC-3 prostate was > 100 µM each time.

For `C/C(=N\Nc1nc2ccccc2s1)c1cccnn1`, the TGI is 12.2 µM in the assay on OVCAR-8 ovarian; 8.69 µM in the assay with NCI/ADR-RES ovarian; > 100 µM in the assay on K-562 leukemia; > 100 µM in the assay with HCT-15 colon; > 100 µM with OVCAR-4 ovarian; > 100 µM in the assay with KM12 colon. Further, the TGI in the assay on DU-145 prostate and with PC-3 prostate was > 100 µM in each case.

In the case of `COc1cc(-c2c3c(cc4c2OCO4)[C@@H](Nc2ccc4c(c2)Cc2cc(N[C@@H]5c6cc7c(cc6C(c6cc(OC)c(O)c(OC)c6)[C@H]6C(=O)OC[C@H]56)OCO7)ccc2-4)[C@H]2COC(=O)[C@@H]2C3)cc(OC)c1O` (some centres undefined), the TGI in the assay on OVCAR-8 ovarian was > 100 µM; in the assay on NCI/ADR-RES ovarian it was 42.2 µM; in the assay on HCT-15 colon it was > 100 µM; with A498 renal, 94.2 µM; in the assay with KM12 colon, > 100 µM; with DU-145 prostate, > 100 µM. In addition, the TGI in the assay with PC-3 prostate was 47 µM.

Turning to `COC(=O)c1cc(C(=O)OC)cc(-c2ccc3c(c2)-c2nc4c(c(-c5ccc(OC)cc5)c2CC3)CCc2ccc(-c3cc(C(=O)OC)cc(C(=O)OC)c3)cc2-4)c1`, the TGI was > 100 µM with NCI/ADR-RES ovarian; 1.06 µM with K-562 leukemia; > 100 µM with HCT-15 colon; > 100 µM in the assay with OVCAR-4 ovarian; > 100 µM with A498 renal; > 100 µM with KM12 colon. The TGI in the assay on DU-145 prostate and in the assay with PC-3 prostate was > 100 µM each time.

On to `O=C1NN=C(c2c[nH]c3ccccc23)CC1NCc1ccccc1` (centres undefined), for which the TGI with OVCAR-8 ovarian, with NCI/ADR-RES ovarian, in the assay with K-562 leukemia, in the assay with HCT-15 colon, in the assay on A498 renal and with KM12 colon was > 100 µM throughout. In addition, the TGI with DU-145 prostate and with PC-3 prostate was > 100 µM in each case.

For `C(=N/Nc1ccc(-c2nc3ccccc3[nH]2)cc1)/c1c(-c2ccccc2)[nH]c2ccccc12`, the TGI in the assay with OVCAR-8 ovarian was > 100 µM; in the assay on NCI/ADR-RES ovarian it was 17.4 µM; in the assay on K-562 leukemia it was 11.9 µM; in the assay on HCT-15 colon it was > 100 µM; with OVCAR-4 ovarian it was > 100 µM; in the assay with KM12 colon, > 100 µM. In addition, the TGI is > 100 µM in the assay with DU-145 prostate and 3.92 µM with PC-3 prostate.

For `COP(=O)(CC(=O)C1OC(OCc2ccccc2)C(OCc2ccccc2)C(OCc2ccccc2)C1OCc1ccccc1)OC` (centres undefined), the TGI is > 100 µM in the assay on OVCAR-8 ovarian; 90.2 µM in the assay on NCI/ADR-RES ovarian; > 100 µM in the assay on K-562 leukemia; > 100 µM in the assay with HCT-15 colon; 8.89 µM with OVCAR-4 ovarian; 37.6 µM in the assay on KM12 colon. Also, the TGI with DU-145 prostate and in the assay on PC-3 prostate was > 100 µM throughout.

Take `CCOC1NC(=O)c2ccccc21` (centres undefined): the TGI in the assay with OVCAR-8 ovarian, in the assay on NCI/ADR-RES ovarian, in the assay with K-562 leukemia, with HCT-15 colon, in the assay with OVCAR-4 ovarian and in the assay with KM12 colon was > 100 µM throughout. Besides, the TGI in the assay on DU-145 prostate and in the assay with PC-3 prostate was > 100 µM throughout.

Regarding `CC12CCC(C/C1=N\NC(N)=O)C2(C)C` (centres undefined), the TGI in the assay on OVCAR-8 ovarian, in the assay with NCI/ADR-RES ovarian, in the assay with K-562 leukemia, with HCT-15 colon, with OVCAR-4 ovarian and in the assay on KM12 colon was > 100 µM each time. For the same compound, the TGI with DU-145 prostate and in the assay with PC-3 prostate was > 100 µM throughout.

`O=C(NCCCNCCCCNCCCNC(=O)C(F)(F)F)C(F)(F)F`: the TGI in the assay on OVCAR-8 ovarian, in the assay on NCI/ADR-RES ovarian, in the assay with HCT-15 colon, in the assay with OVCAR-4 ovarian, in the assay with A498 renal and in the assay on KM12 colon was > 100 µM in each case. The TGI in the assay with DU-145 prostate and in the assay on PC-3 prostate was > 100 µM throughout.
